Results taken from patent publication US10723711B2, “1,1,1-trifluoro-3-hydroxypropan-2-yl carbamate derivatives and 1,1,1-trifluoro-4-hydroxybutan-2-yl carbamate derivatives as MAGL inhibitors” (PFIZER INC., priority 2015, dated 2020).
Like-named read-outs stand apart in the source and are kept apart here.

Experiments:
[1] = target: T1, human recombinant Monoacylglycerol Lipase (Homo sapiens, UniProt Q99685); assay: MAGL inhibition enzymatic assay, fluorogenic substrate 7-HCA, IC50 at T=0 min or after 30 minute incubation (T=30 min); assay type: biochemical; conditions: geometric mean of 2-4 determinations unless otherwise indicated
T1 sequence (Q99685 1-303): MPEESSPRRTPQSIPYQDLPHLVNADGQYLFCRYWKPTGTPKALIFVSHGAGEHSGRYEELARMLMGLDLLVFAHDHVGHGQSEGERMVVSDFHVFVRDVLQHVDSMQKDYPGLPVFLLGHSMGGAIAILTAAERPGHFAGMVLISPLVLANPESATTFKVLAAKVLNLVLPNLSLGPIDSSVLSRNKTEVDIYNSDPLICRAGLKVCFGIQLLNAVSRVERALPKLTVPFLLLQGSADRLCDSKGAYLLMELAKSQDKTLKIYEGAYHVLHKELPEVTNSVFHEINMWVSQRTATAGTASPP
Method: An equal volume of 7-HCA in assay buffer with 10% DMSO was added either immediately (T=0 min) or after a 30 minute incubation (T=30 min) to initiate the reaction. […] After these dilutions, the final concentration of the test compound ranged from 3 μM to 0.03 nM. […] IC50 values were generated based on a four parameter fit model using ABASE software from IDBS.

[2] = target: T1, human recombinant Monoacylglycerol Lipase; assay: MAGL inactivation, enzyme progress curves, kinact/KI; assay type: biochemical; conditions: from enzyme progress curves, T = 0 min protocol; geometric mean of 2-4 determinations unless otherwise indicated
Procedure, shortened: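 Human recombinant MAGL ([…]) with compound, 7-HCA substrate (final 5 μM) added immediately (T=0 min), in pH 7.4 HEPES buffer with 0.1% Triton X-100 and 25% glycerin. Fluorescence (Ex/Em 340/465) was read every minute over 60 min, giving progress curves at decreasing compound concentrations (final 3 μM to 0.03 nM).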

[3] = target: T2, human recombinant FAAH (Homo sapiens, UniProt O00519); assay: FAAH inhibition enzymatic assay, fluorescent substrate Arachidonoyl-AMC, 30 minute incubation; assay type: biochemical; conditions: T = 30 min (30 minute incubation); geometric mean of 2-4 determinations unless otherwise indicated
T2 construct: purchased Cayman 10010183
T2 sequence (O00519 1-579): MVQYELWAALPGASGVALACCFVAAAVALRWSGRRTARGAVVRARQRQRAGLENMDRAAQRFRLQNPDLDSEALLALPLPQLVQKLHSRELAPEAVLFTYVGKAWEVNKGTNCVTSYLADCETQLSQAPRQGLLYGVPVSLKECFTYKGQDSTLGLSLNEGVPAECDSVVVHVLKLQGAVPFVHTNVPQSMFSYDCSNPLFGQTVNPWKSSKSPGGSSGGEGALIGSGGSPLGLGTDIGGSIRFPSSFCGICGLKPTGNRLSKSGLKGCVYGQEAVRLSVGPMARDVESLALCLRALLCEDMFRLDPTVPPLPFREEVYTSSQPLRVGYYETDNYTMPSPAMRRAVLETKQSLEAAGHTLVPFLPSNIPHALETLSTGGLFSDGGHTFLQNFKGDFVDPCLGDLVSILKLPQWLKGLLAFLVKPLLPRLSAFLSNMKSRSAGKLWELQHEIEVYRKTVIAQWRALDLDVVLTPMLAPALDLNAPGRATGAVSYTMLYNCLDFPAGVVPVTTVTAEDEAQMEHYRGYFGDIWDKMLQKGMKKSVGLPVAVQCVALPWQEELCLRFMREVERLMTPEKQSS

[4] = Prodrug in vivo pharmacokinetics in rats after intravenous administration (LC-MS-MS of prodrug and parent); conditions: for Cmax: Wistar Hann, rat, in vivo, iv, 1.48 mg/kg
Method: (§1) Pharmacokinetic parameters derived from the plasma analytical data were determined using Watson LIMS 7.2.003 (Thermo Fisher Scientific, Waltham, Mass.).

[5] = Prodrug in vivo pharmacokinetics in dogs after intravenous administration (LC-MS-MS of prodrug and parent); conditions: Beagle dogs
Method: as §1

[6] = T = 0 min (substrate added immediately), read-out: MAGL (T = 0 min) IC50
[7] = T = 30 min (30 minute incubation), read-out: MAGL (T = 30 min) IC50
[8] = Example 9 (parent) in plasma, Wistar Hann rats, IV Example 31 at 1.48 mg/kg, Mean
[9] = Example 9 (parent) in plasma, Wistar Hann rats, IV Example 31 at 1.48 mg/kg, Rat 01
[10] = Example 9 (parent) in plasma, Wistar Hann rats, IV Example 31 at 1.48 mg/kg, Rat 02
[11] = Example 9 (parent) in plasma, IV Example 31 at 0.7 mg/kg, Dog 01
[12] = Example 9 (parent) in plasma, IV Example 31 at 0.7 mg/kg, Dog 02
[13] = Example 9 (parent) in plasma, IV Example 31 at 0.7 mg/kg, Mean
[14] = Example 32 in plasma, rats, IV Example 32 (2 mg/kg active), Mean
[15] = Example 32 in plasma, rats, IV Example 32 (2 mg/kg active), Rat 03
[16] = Example 32 in plasma, rats, IV Example 32 (2 mg/kg active), Rat 04
[17] = Example 32 in plasma, IV Example 32 at 1 mg/kg, Dog 03
[18] = Example 32 in plasma, IV Example 32 at 1 mg/kg, Dog 04
[19] = Example 32 in plasma, IV Example 32 at 1 mg/kg, Mean

O=C(O[C@H](CO)C(F)(F)F)N1CCC2(CC1)C[C@@H](NS(=O)(=O)c1ccccc1)CO2 [Example 9, (2R)-1,1,1-Trifluoro-3-hydroxypropan-2-yl (3R)-3-[(phenylsulfonyl)amino]-1-oxa-8-azaspiro[4.5]decane-8-carboxylate]
IC50 [1, 6]: 40 nM
IC50 [1, 7]: 4 nM
MAGL kinact/KI [2]: 8588 1/s per M
IC50 [3]: > 30000 nM
% AUC Extrap [4, 8]: 2.46%
AUC [4, 8]: 146 ng·h/mL
AUC Extrap [4, 8]: 150 ng·h/mL
Rate Constant [4, 8]: 0.500 h⁻¹
Tmax [4, 8]: 4.98 min
T½ [4, 8]: 84.6 min
% AUC Extrap [4, 9]: 2.08%
AUC [4, 9]: 118 ng·h/mL
AUC Extrap [4, 9]: 121 ng·h/mL
Rate Constant [4, 9]: 0.560 h⁻¹
Tmax [4, 9]: 4.98 min
T½ [4, 9]: 74.4 min
% AUC Extrap [4, 10]: 2.83%
AUC [4, 10]: 173 ng·h/mL
AUC Extrap [4, 10]: 178 ng·h/mL
Rate Constant [4, 10]: 0.440 h⁻¹
Tmax [4, 10]: 4.98 min
T½ [4, 10]: 94.2 min
Cmax [4, 8]: 316 ng/mL
Cmax [4, 9]: 253 ng/mL
Cmax [4, 10]: 378 ng/mL
AUC [5, 11]: 1350 ng·h/mL
AUC Extrap [5, 11]: 1550 ng·h/mL
Tmax [5, 11]: 15 min
T½ [5, 11]: 642 min
AUC [5, 12]: 1460 ng·h/mL
AUC Extrap [5, 12]: 1560 ng·h/mL
Tmax [5, 12]: 4.98 min
T½ [5, 12]: 482 min
AUC [5, 13]: 1410 ng·h/mL
AUC Extrap [5, 13]: 1560 ng·h/mL
Tmax [5, 13]: 10.2 min
T½ [5, 13]: 562 min

O=C(O[C@H](COP(=O)([O-])[O-])C(F)(F)F)N1CCC2(CC1)CN(S(=O)(=O)c1ccc(F)cc1)CCO2.[Na+].[Na+] [Example 32, (2R)-3,3,3-Trifluoro-2-[({4-[(4-fluorophenyl)sulfonyl]-1-oxa-4,9-diazaspiro[5.5]undec-9-yl}carbonyl)oxy]propyl phosphate, disodium salt]
IC50 [1, 6]: > 3000 nM
IC50 [1, 7]: > 3000 nM
% AUC Extrap [4, 14]: 0.532%
AUC [4, 14]: 159 ng·h/mL
AUC Extrap [4, 14]: 160 ng·h/mL
CL [4, 14]: 215 mL/min/kg
Co [4, 14]: 3760 ng/mL
Rate Constant [4, 14]: 5.94 h⁻¹
T½ [4, 14]: 7.32 min
Vdss [4, 14]: 0.597 L/kg
% AUC Extrap [4, 15]: 0.232%
AUC Extrap [4, 15]: 185 ng·h/mL
CL [4, 15]: 180 mL/min/kg
Co [4, 15]: 4480 ng/mL
Rate Constant [4, 15]: 4.73 h⁻¹
T½ [4, 15]: 8.82 min
Vdss [4, 15]: 0.515 L/kg
AUC ([4]; Example 32 in plasma, rats, IV Example 32 (2 mg/kg active), Rat 03, AUC interval 0-1 Hours): 185 ng·h/mL
% AUC Extrap [4, 16]: 0.832%
AUC Extrap [4, 16]: 134 ng·h/mL
CL [4, 16]: 249 mL/min/kg
Co [4, 16]: 3040 ng/mL
Rate Constant [4, 16]: 7.14 h⁻¹
T½ [4, 16]: 5.83 min
Vdss [4, 16]: 0.679 L/kg
AUC ([4]; Example 32 in plasma, rats, IV Example 32 (2 mg/kg active), Rat 04, AUC interval 0-0.5 Hours): 133 ng·h/mL
% AUC Extrap [5, 17]: 0.0443%
AUC Extrap [5, 17]: 146 ng·h/mL
CL [5, 17]: 114 mL/min/kg
Co [5, 17]: 1220 ng/mL
Rate Constant [5, 17]: 5.08 h⁻¹
T½ [5, 17]: 8.16 min
Vdss [5, 17]: 0.751 L/kg
AUC ([5]; Example 32 in plasma, IV Example 32 at 1 mg/kg, Dog 03, AUC interval 0-1 Hours): 146 ng·h/mL
% AUC Extrap [5, 18]: 0.150%
AUC Extrap [5, 18]: 229 ng·h/mL
CL [5, 18]: 72.8 mL/min/kg
Co [5, 18]: 2370 ng/mL
Rate Constant [5, 18]: 5.06 h⁻¹
T½ [5, 18]: 8.22 min
Vdss [5, 18]: 0.357 L/kg
AUC ([5]; Example 32 in plasma, IV Example 32 at 1 mg/kg, Dog 04, AUC interval 0-1 Hours): 229 ng·h/mL
% AUC Extrap [5, 19]: 0.0972%
AUC [5, 19]: 188 ng·h/mL
AUC Extrap [5, 19]: 188 ng·h/mL
CL [5, 19]: 93.4 mL/min/kg
Co [5, 19]: 1800 ng/mL
Rate Constant [5, 19]: 5.07 h⁻¹
T½ [5, 19]: 8.22 min
Vdss [5, 19]: 0.554 L/kg
